Drawing on US12109283B2, “Safe and ecofriendly persistent sanitizing gel for topical application” (GALAXY SURFACTANTS LTD., priority 2021, dated 2024), this text covers E1 % for one compound.

A short description of the data set: UV absorbing power (E1% 1 cm). Type of data set: physicochemical. Particulars: at the λmax printed in Table 1 (290 nm or 305 nm). The source says: Fatty acids of Tung seed oil have good UV absorbing power as is evident from its conjugated system and from its E1% 1 cm of 1600 at 270 nm and 360 at 290 nm. These UV absorbing fatty acids can not only protect the ingredients of the formulations but also the skin and hair from the ravages of solar radiation when the formulations are applied. […] UV B radiation of solar spectrum is the most damaging since it causes skin cancer.
Both homosalate and Octyl salicylates are popular sunscreen molecules all over the world.

On to `CC1CC(OC(=O)c2ccccc2O)CC(C)(C)C1` (stereo not shown) [Homosalate (118-56-9), Homosalate], for which the E1 % was 180.
